Laboratory results published in patent US20100267561A1, “HERBICIDAL PYRIDAZINONE DERIVATIVES” (priority 2007, published 2010).

Legend:
Assay type in all cases: in vivo
rice (Oryza sativa) = experiment: Test B flooded paddy test plant response
In short: (§1)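 Compounds were added directly to paddy water over 2-leaf-stage plants in pots flooded 3 cm above soil, water depth maintained. Visual injury scored against controls after 13 to 15 days in greenhouse, 0 (none) to 100 (complete control); dash indicates no result.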

[1] = test system: ducksalad (Heteranthera limosa); experiment: Test B flooded paddy test plant response
In short: as §1

[2] = test system: eastern black (E.B.) nightshade (Solanum ptycanthum); experiment: Test B pre-/postemergence plant response; details: Preemergence
In short: (§2)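 Seeds were sown and sprayed preemergence, while plants at 2 to 18 cm (1- to 4-leaf stage) got postemergence sprays. Compounds were formulated in a non-phytotoxic solvent mixture with surfactant. After 13 to 15 days in a greenhouse, injury was rated visually against untreated controls, 0 (no effect) to 100 (complete control).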

[3] = test system: common (oilseed) sunflower (Helianthus annuus); experiment: Test B pre-/postemergence plant response; details: Preemergence
In short: as §2

[4] = test system: giant foxtail (Setaria faberii); experiment: Test B pre-/postemergence plant response
In short: as §2

[5] = test system: velvetleaf (Abutilon theophrasti); experiment: Test B pre-/postemergence plant response
In short: as §2

[6] = test system: woolly cupgrass (Eriochloa villosa); experiment: Test B pre-/postemergence plant response
In short: as §2

[7] = test system: goosegrass (Eleusine indica); experiment: Test B pre-/postemergence plant response
In short: as §2

[8] = test system: large crabgrass (Digitaria sanguinalis); experiment: Test B pre-/postemergence plant response
In short: as §2

[9] = test system: green foxtail (Setaria viridis); experiment: Test B pre-/postemergence plant response
In short: as §2

[10] = test system: common ragweed (Ambrosia elation); experiment: Test B pre-/postemergence plant response
In short: as §2

[11] = test system: pigweed (Amaranthus retroflexus); experiment: Test B pre-/postemergence plant response
In short: as §2

wild oat (Avena fatua) = experiment: Test B pre-/postemergence plant response
In short: as §2

[12] = test system: johnsongrass (Sorghum halepense); experiment: Test B pre-/postemergence plant response
In short: as §2

[13] = Flood (flooded paddy test), 62 g ai/ha, scale 0 to 100, 0 no effect, 100 complete control
[14] = Flood (flooded paddy test), 125 g ai/ha, scale 0 to 100, 0 no effect, 100 complete control
[15] = Flood (flooded paddy test), 250 g ai/ha, scale 0 to 100, 0 no effect, 100 complete control
[16] = Flood, 31 g ai/ha, scale 0 to 100
[17] = 31 g ai/ha, 0 to 100 scale, 0 no effect, 100 complete control
[18] = Postemergence, 31 g ai/ha, scale 0 to 100, 0 no effect, 100 complete control
[19] = Postemergence, 62 g ai/ha, scale 0 to 100
[20] = Postemergence, 125 g ai/ha, scale 0 to 100
[21] = Postemergence, 250 g ai/ha, scale 0 to 100
[22] = Preemergence, 31 g ai/ha, 0 to 100 scale, 0 no effect, 100 complete control
[23] = Preemergence, 62 g ai/ha, scale 0 to 100
[24] = Preemergence, 125 g ai/ha, scale 0 to 100
[25] = Preemergence, 250 g ai/ha, scale 0 to 100

Structure (SMILES): Cc1cc(-c2ccc(Br)cc2)nn1-c1c(OC(=O)OC(C)C)cnn(C)c1=O [Compound 6]
- Plant response rating, Rice (rice (Oryza sativa); [13]): 30
- Plant response rating, Rice (rice (Oryza sativa); [14]): 80
- Plant response rating, Rice (rice (Oryza sativa); [15]): 90
- Plant response rating, Rice (rice (Oryza sativa); [16]): 20
- Plant response rating, Ducksalad [1, 13]: 50
- Plant response rating, Ducksalad [1, 14]: 60
- Plant response rating, Ducksalad [1, 15]: 70
- Plant response rating, Ducksalad [1, 16]: 40
- Plant response rating, Nightshade, E. B. [2, 17]: 0
- Plant response rating, Nightshade, E. B. ([2]; 125 g ai/ha, scale 0 to 100): 90
- Plant response rating, Nightshade, E. B. ([2]; 250 g ai/ha, scale 0 to 100): 90
- Plant response rating, Sunflower [3, 17]: 0
- Plant response rating, Sunflower ([3]; 62 g ai/ha, scale 0 to 100): 0
- Plant response rating, Sunflower ([3]; 125 g ai/ha, scale 0 to 100): 0
- Plant response rating, Sunflower ([3]; 250 g ai/ha, scale 0 to 100): 0
- Plant response rating, Foxtail, Giant [4, 18]: 100
- Plant response rating, Foxtail, Giant [4, 19]: 100
- Plant response rating, Foxtail, Giant [4, 20]: 100
- Plant response rating, Foxtail, Giant [4, 21]: 100
- Plant response rating, Foxtail, Giant [4, 22]: 100
- Plant response rating, Foxtail, Giant [4, 23]: 100
- Plant response rating, Foxtail, Giant [4, 24]: 100
- Plant response rating, Foxtail, Giant [4, 25]: 100
- Plant response rating, Velvetleaf [5, 18]: 0
- Plant response rating, Velvetleaf [5, 19]: 0
- Plant response rating, Velvetleaf [5, 20]: 0
- Plant response rating, Velvetleaf [5, 21]: 10
- Plant response rating, Velvetleaf [5, 22]: 0
- Plant response rating, Velvetleaf [5, 23]: 0
- Plant response rating, Velvetleaf [5, 24]: 0
- Plant response rating, Velvetleaf [5, 25]: 40
- Plant response rating, Cupgrass, Woolly [6, 18]: 100
- Plant response rating, Cupgrass, Woolly [6, 19]: 100
- Plant response rating, Cupgrass, Woolly [6, 20]: 100
- Plant response rating, Cupgrass, Woolly [6, 21]: 100
- Plant response rating, Cupgrass, Woolly [6, 22]: 85
- Plant response rating, Cupgrass, Woolly [6, 23]: 85
- Plant response rating, Cupgrass, Woolly [6, 24]: 85
- Plant response rating, Cupgrass, Woolly [6, 25]: 85
- Plant response rating, Goosegrass [7, 18]: 95
- Plant response rating, Goosegrass [7, 19]: 100
- Plant response rating, Goosegrass [7, 20]: 100
- Plant response rating, Goosegrass [7, 21]: 100
- Plant response rating, Goosegrass [7, 22]: 80
- Plant response rating, Goosegrass [7, 23]: 95
- Plant response rating, Goosegrass [7, 24]: 100
- Plant response rating, Goosegrass [7, 25]: 100
- Plant response rating, Crabgrass, Large [8, 18]: 100
- Plant response rating, Crabgrass, Large [8, 19]: 100
- Plant response rating, Crabgrass, Large [8, 20]: 100
- Plant response rating, Crabgrass, Large [8, 21]: 100
- Plant response rating, Crabgrass, Large [8, 22]: 98
- Plant response rating, Crabgrass, Large [8, 23]: 100
- Plant response rating, Crabgrass, Large [8, 24]: 100
- Plant response rating, Crabgrass, Large [8, 25]: 100
- Plant response rating, Foxtail, Green [9, 18]: 100
- Plant response rating, Foxtail, Green [9, 19]: 100
- Plant response rating, Foxtail, Green [9, 20]: 100
- Plant response rating, Foxtail, Green [9, 21]: 100
- Plant response rating, Foxtail, Green [9, 22]: 100
- Plant response rating, Foxtail, Green [9, 23]: 100
- Plant response rating, Foxtail, Green [9, 24]: 100
- Plant response rating, Foxtail, Green [9, 25]: 100
- Plant response rating, Ragweed [10, 18]: 0
- Plant response rating, Ragweed [10, 19]: 0
- Plant response rating, Ragweed [10, 20]: 0
- Plant response rating, Ragweed [10, 21]: 50
- Plant response rating, Ragweed [10, 22]: 0
- Plant response rating, Ragweed [10, 23]: 0
- Plant response rating, Ragweed [10, 24]: 20
- Plant response rating, Ragweed [10, 25]: 20
- Plant response rating, Pigweed [11, 18]: 0
- Plant response rating, Pigweed [11, 19]: 0
- Plant response rating, Pigweed [11, 20]: 0
- Plant response rating, Pigweed [11, 21]: 40
- Plant response rating, Pigweed [11, 23]: 0
- Plant response rating, Pigweed [11, 24]: 30
- Plant response rating, Pigweed [11, 25]: 60
- Plant response rating, Oat, Wild (wild oat (Avena fatua); [18]): 100
- Plant response rating, Oat, Wild (wild oat (Avena fatua); [19]): 100
- Plant response rating, Oat, Wild (wild oat (Avena fatua); [20]): 100
- Plant response rating, Oat, Wild (wild oat (Avena fatua); [21]): 100
- Plant response rating, Oat, Wild (wild oat (Avena fatua); [22]): 50
- Plant response rating, Oat, Wild (wild oat (Avena fatua); [23]): 50
- Plant response rating, Oat, Wild (wild oat (Avena fatua); [24]): 85
- Plant response rating, Oat, Wild (wild oat (Avena fatua); [25]): 85
- Plant response rating, Johnsongrass [12, 18]: 0
- Plant response rating, Johnsongrass [12, 19]: 0
- Plant response rating, Johnsongrass [12, 22]: 60
- Plant response rating, Johnsongrass [12, 23]: 90
- Plant response rating, Johnsongrass [12, 24]: 95
- Plant response rating, Johnsongrass [12, 25]: 100
